Laboratory results from patent US20170032106A1, “System and Method for Analyzing Adverse Event Data” (Astellas Pharma Europe Ltd., priority 2015, published 2017).
Read-outs that look alike come from different tables or passages of the source.

What was measured:
[1] = design: species or system patients; conditions: human, in vivo; for burden estimate from dry mouth / overall burden estimate: 85 days
Text: The systems and methods of the present invention are now described with reference to specific examples of clinical trials and the adverse event data generated in connection therewith, and stored in a database. […] 2015]. DOI: 10.1177/1756287215589250) with a β3 adrenergic receptor agonist and an anti-muscarinic agent. General names for each drug treatment are used herein.
First described is the data analysis involved with implementation of the invention. More particularly, the application of the methodology involves the use of a clinical study database with individual data entries for TEAEs per patient per day. The presence of TEAEs may be plotted against the study day, such that if a patient reported a TEAE from Days 3 to 5, this TEAE was considered present on Days 3, 4 and 5. Also, if an end date was not present in the database, or a TEAE was ongoing, the last study day of the patient was taken as the end day of the TEAE. […] The addition of coloring that corresponds with TEAE severity allows easy discrimination of TEAEs of differing severity in the graph.
In order to visually represent the safety/TEAE burden experienced by a patient, varied weighting may be applied to TEAE severity in each arm in a consistent manner. The graph may, therefore, display the number of weighted TEAEs per day. For purposes of example, in the graphs described herein, TEAEs that were mild, moderate, severe, life threatening/disabling and related to death were weighted to represent 1×, 2×, 3×, 4× and 5×TEAEs per event per day, respectively. Further, the investigator may indicate the seriousness of the TEAE.
An area under the curve (AUC) analysis can be performed in conjunction with the burden of therapy methodology to quantitatively compare potential differences in mean events per day between study arms. This can be performed in conjunction with weighting of events if required. An AUC analysis may be useful in studies that have a similar presence of events in each arm, as an estimate of the mean weighted events per day for each arm can be compared using statistical tools.
The AUC for each individual subject can also be calculated. The AUC represents the total burden that an individual subject experienced during the trial. The AUC is the sum of the burden, for all burdens of an individual subject. Thus, the AUC of subject i is burdeni=Σj=1^t^i burdenij, where ti is the total number of study days of subject i.
The AUC can be used in an analysis of covariance (ANCOVA) as a response variable and the impact of different covariates and factors on the AUC can be investigated. The obvious factor is treatment, but one can include medication history, age, gender or BMI as […] in the ANCOVA analysis.
To analyze the profiles with an ANCOVA, the AUC for dry mouth of each subject was derived. The AUC was then used as the dependent variable in the model. […] It is likely that a negative past experience with anti-muscarinics could influence the recording of a specific adverse event like dry-mouth. In the statistical (ANCOVA) model, prior anti-muscarinics dissatisfaction was added next to treatment as explanatory variable. […] Prior anti-muscarinic dissatisfaction had also a low p-value (p=0.007), meaning that subjects with a negative experience using anti muscarinics also reported more dry mouths. In this study, dry mouth was reported by 29 patients (3.1%) in the adrenergic agonist group and 54 patients (5.8%) in the antimuscarinic group (Batista et al., 2015). An analysis of patients who reported dry mouth was performed to investigate whether there was a difference between arms and approximately 1.5-2.0% of patients reported dry mouth in the antimuscarinic group from Days 17-85 (FIGS. 3B and 4B).

[2] = cited from earlier work
[3] = overactive bladder study, whole study

| SMILES | patients reporting dry mouth per day [1] | difference in the proportion of patients with TEAEs ([1]; 10 day) | difference in the proportion of patients with TEAEs ([1]; 85 day) | burden estimate from dry mouth [1] | overall burden estimate [1] | number of patients reporting dry mouth ([2]; human, in vivo) | patients reporting dry mouth (%) ([2]; human, in vivo) | patients with TEAEs (%) [2, 3] | total number of patients with TEAEs [2, 3] |
| --- | --- | --- | --- | --- | --- | --- | --- | --- | --- |
| O=C(O[C@H]1CN2CCC1CC2)N1CCc2ccccc2[C@@H]1c1ccccc1 [antimuscarinic agent, solifenacin] | 1.5-2.0% | 0.1% | 5% | 5.7 | 19.6 |  |  |  |  |
| Nc1nc(CC(=O)Nc2ccc(CCNC[C@H](O)c3ccccc3)cc2)cs1 [β3 adrenergic receptor agonist, mirabegron] |  |  |  | 2.9 | 15.1 | 29 patients | 3.1% | 29.3% | 274 |
